{"source": "patent US12616681B2", "about": "“Compositions and methods for treating renal injury” (priority 2019, dated 2026)", "key": {"[1]": {"test_system": "mice with ischemic AKI (bilateral renal IRI)", "test": "Renal IRI (ischemic AKI) mouse model: renal function markers", "format": "in vivo, C57/BL6 mice", "method": "Briefly, mice were anesthetized with isoflurane using a vaporizer, and bilateral renal arteries were clamped for 30 min (2, 49). After the ischemic time, clamps were released to induce blood reperfusion. […] Serum and kidney tissue were collected 24 h after renal IRI. […] After reperfusion for 24 h, kidney tissues (˜20 mg) were homogenized in cold PBS containing indomethacin (10 μg/mL) and then centrifuged for 10 min at 12,000 rpm. Protein concentrations of supernatant were determined by BCA assay (ThermoFisher Scientific, Rockford, IL). The PGE2 level was measured using a PGE2 ELISA kit (R&D Systems, Minneapolis, MN) in triplicate. PGE2 levels were expressed as nanograms of PGE2 per milligram of protein. Renal function was assessed by determining the serum levels of blood urea nitrogen (BUN; Abcam), serum creatinine (Agilent 6410 LC-MS/MS, Agilent, Santa Clara, CA), lipocalin-2 (R&D Systems), and kidney injury molecule-1 (KIM-1; R&D Systems) after reperfusion for 24 h. Measurement of serum creatinine was by HPLC. Serum creatinine was assessed using an Agilent 6410 LC-MS/MS system coupled with an Agilent 1200 series HPLC system (Agilent). […] The mixture was centrifuged at 13,000 rpm for 10 min after vigorous vortex, and 1 μL of supernatant was then injected into the LC-MS/MS system. The chromatography separation was performed on a Hypersil GOLD C18 column (150×2.1 mm, 3 m, Thermo Scientific) using a mobile phase of 0.1% formic acid solution and acetonitrile [70:30 (vol/vol)]. The flow rate was 0.2 mL/min. Electrospray ionization was performed in the positive ion mode. The capillary voltage was set at 4,000 V. Nitrogen as the nebulizing gas was set at 15 psi, and the drying gas temperature was set at 300° C., with a flow rate of 6 L/min. The multiple-reaction monitoring mode using specific precursor/production transition was used for quantification. […] The peak areas for all analytes were integrated automatically using Agilent Mass Hunter Analysis software (version B.01.04)."}, "[2]": {"test_system": "human renal proximal tubular epithelial cells (hRPTECs)", "test": "hRPTEC apoptosis by flow cytometry with iodixanol", "format": "cell-based", "settings": "drug with iodixanol 50 mgI/mL, 24 h", "method": "Human renal proximal tubular epithelial cells (hRPTECs) were purchased from the American Type Culture Collection (#PCS-400-010TM, Manassas, VA, USA). These cells were grown in 75 cm^2 flasks in Renal Epithelial Cell Basal Medium (PCS-400-030TM, ATCCVR) supplemented with Renal Epithelial Cell Growth Kit (PCS-400-040TM, ATCCVR).\nAfter the treatment described in the section above, the hRPTECs were pelleted by centrifugation at 1800 rpm for 10 min and incubated with annexin V fluorescein isothiocyanate and propidium iodide using an Apoptosis Detection Kit I (#556547, BD Biosciences, San Jose, CA, USA) according to the manufacture's instruction. Then quantification was conducted using a FACSC flow cytometer with Cell Quest software (BD Biosciences)."}, "[3]": {"test_system": "contrast-induced acute kidney injury (CIAKI) mice", "test": "CIAKI mouse model: renal function (serum creatinine, NGAL, KIM-1)", "format": "in vivo, C57/BL6 mice", "method": "Female mice were injected with 10 gI/kg of Visipaque (iodixanol) via the tail vein. […] For inhibition of the EP4s, mice were treated with 0.2 mg/kg/day of ONO-AE3-208 by subcutaneous injection for 14 days. Serum and kidney tissue were collected 48 h after the iodixanol injection.\nRenal function was assessed by determining the serum levels of creatinine (Arbor Assays, Ann Arbor, MI, USA), NGAL (R&D Systems), and KIM-1 (R&D Systems) at 48 h after the iodixanol injection."}, "[4]": {"settings": "24 h after renal IRI, vs IRI-vehicle mice, dosing before and after IRI"}}, "data": [{"smiles": "CCCC[S+]([O-])c1sc2nc(-c3cccs3)cc(-c3ccccc3)c2c1N", "note": "(stereo not drawn) [SW033291]", "values": [{"measurement": "BUN (serum)", "setting": "[1]; [4]", "value": "significantly reducing"}, {"measurement": "KIM-1 (serum)", "setting": "[1]; [4]", "value": "significantly reducing"}, {"measurement": "NGAL (serum)", "setting": "[1]; [4]", "value": "significantly reducing"}, {"measurement": "creatinine (serum)", "setting": "[1]; [4]", "value": "significantly reducing"}, {"measurement": "induction of NGAL, KIM-1, and creatinine", "setting": "[1]; single pre-IRI dose (Pre), time course", "value": "notable protection"}, {"measurement": "apoptosis rate of hRPTECs", "setting": "[2]", "value": "10.06±0.85", "unit": "%"}, {"measurement": "serum creatinine, absence or presence of ONO-AE3-208", "setting": "[3]; CIAKI mice (FIG. 15E), SW033291 line = CM + SW033291, ONO-AE3-208 line = CM + ONO-AE3-208 + SW033291", "value": "0.50 ± 0.10", "unit": "mg/dL"}, {"measurement": "serum NGAL, absence or presence of ONO-AE3-208", "setting": "[3]; CIAKI mice (FIG. 15F), SW033291 line = CM + SW033291, ONO-AE3-208 line = CM + ONO-AE3-208 + SW033291", "value": "140.41 ± 25.52", "unit": "ng/mL"}, {"measurement": "serum KIM-1, absence or presence of ONO-AE3-208", "setting": "[3]; CIAKI mice (FIG. 15G), SW033291 line = CM + SW033291, ONO-AE3-208 line = CM + ONO-AE3-208 + SW033291", "value": "0.09 ± 0.05", "unit": "ng/mL"}, {"measurement": "serum creatinine", "setting": "[3]; CIAKI mice, CM + drug, 48 h after CM (FIG. 11C)", "value": "1.10 ± 0.11", "unit": "mg/dL"}, {"measurement": "serum NGAL", "setting": "[3]; CIAKI mice, CM + drug, 48 h after CM (FIG. 11D)", "value": "140.41 ± 25.52", "unit": "ng/mL"}, {"measurement": "serum KIM-1", "setting": "[3]; CIAKI mice, CM + drug, 48 h after CM (FIG. 11E)", "value": "0.43 ± 0.30", "unit": "ng/mL"}]}]}
